41 compounds from patent US7183276B2, “Azole compounds” (Takeda Pharmaceutical Company Limited, priority 2002, dated 2007) can be followed below.

What is called melting point is the temperature, or range, at which the solid turns liquid.

Take `Cc1ccc(Cl)cc1CNC(=O)CCc1oc(-n2cnc3ccccc32)nc1-c1ccc(Cl)cc1` [Example 176, 3-[2-(1H-benzimidazol-1-yl)-4-(4-chlorophenyl)-5-oxazolyl]-N-(5-chloro-2-methylbenzyl)propionamide]: the melting point is 217 to 219 °C.

`O=C(CCc1oc(-n2cnc3ccccc32)nc1-c1ccc(Cl)cc1)NCc1cc(F)ccc1F` [Example 158, 3-[2-(1H-benzimidazol-1-yl)-4-(4-chlorophenyl)-5-oxazolyl]-N-(2,5-difluorobenzyl)propionamide] displayed a melting point of 197 to 198 °C.

In the case of `N#CCc1ccc(NC(=O)CCCCc2sc(-n3cnc4ccccc43)nc2-c2ccc(Cl)cc2)cc1` [Example 223, 5-[2-(1H-benzimidazol-1-yl)-4-(4-chlorophenyl)-5-thiazolyl]-N-[4-(cyanomethyl)phenyl]pentanamide], the melting point lay within 187 to 188 °C.

In turn, `CCOP(=O)(Cc1ccc(NC(=O)CCc2sc(-n3cnc4ccccc43)nc2-c2ccc(Cl)cc2)cc1)OCC` had a melting point of 150 to 151 °C.

Turning to `CCOP(=O)(Cc1ccc(NC(=O)CCc2sc(NC(=O)CCc3ccccc3)nc2-c2ccc(Cl)cc2)cc1)OCC`, the melting point lay in the range of 208 to 209 °C.

For the compound `COC(=O)c1ccc(NC(=O)CCc2sc(-c3ccccc3)nc2-c2ccc(Cl)cc2)cc1` [Example 45, 3-[4-(4-chlorophenyl)-2-phenyl-5-thiazolyl]-N-[4-(methoxycarbonyl)phenyl]propionamide], the melting point was in the range of 177 to 178 °C.

Take `CCOP(=O)(Cc1ccc(NC(=O)CCc2oc(Sc3ccccn3)nc2-c2ccc(Cl)cc2)cc1)OCC`: the melting point lay within 146 to 147 °C.

Compound `CCOP(=O)(Cc1ccc(NC(=O)CCc2sc(-n3cnc4ccccc43)nc2C(C)C)cc1)OCC` showed a melting point of 171 to 172 °C.

On to `O=C(CCc1oc(-n2cnc3ccccc32)nc1-c1ccc(Cl)cc1)N1CCS(=O)(=O)C1` [Example 344, 3-{3-[2-(1H-benzoimidazol-1-yl)-4-(4-chlorophenyl)-5-oxazolyl]propanoyl}thiazolidine-1,1-dioxide], for which the melting point is 136 to 137 °C.

For the compound `O=C(CCc1oc(-n2cnc3ccccc32)nc1-c1ccc(Cl)cc1)NCc1ccc(-c2csnn2)cc1` [Example 150, 3-[2-(1H-benzimidazol-1-yl)-4-(4-chlorophenyl)-5-oxazolyl]-N-[4-(1,2,3-thiadiazol-4-yl)benzyl]propionamide], the melting point was 173 to 174 °C.

In turn, `NC(=O)CCc1oc(-n2cnc3ccccc32)nc1-c1ccc(Cl)cc1` [Example 8, 3-[2-(1H-benzimidazol-1-yl)-4-(4-chlorophenyl)-5-oxazolyl]propionamide] registered a melting point of 265 to 266 °C.

Consider `CN(C)c1ccc(NC(=O)Cc2ccc(NC(=O)CCc3oc(-n4cnc5ccccc54)nc3-c3ccc(Cl)cc3)cc2)cc1` [Example 140, 2-[4-(N-{3-[2-(1H-benzimidazol-1-yl)-4-(4-chlorophenyl)-5-oxazolyl]propanoyl}amino)phenyl]-N-[4-(dimethylamino)phenyl]acetamide], for which the melting point lay in the range of 169 to 170 °C.

Turning to `O=C(CCc1oc(-n2cnc3ccccc32)nc1-c1ccc(Cl)cc1)N1CCCC(O)C1` (centres unmarked) [Example 300, 1-{3-[2-(1H-benzoimidazol-1-yl)-4-(4-chlorophenyl)-5-oxazolyl]propanoyl}-3-piperidinol], the melting point lay within 104 to 105 °C.

The compound `Cc1cc(C)n(-c2nc(-c3ccc(Cl)cc3)c(CCC(=O)N3CCN(CC4CCN(C)CC4)CC3)o2)n1` [Example 347, 1-{3-[4-(4-chlorophenyl)-2-(3,5-dimethyl-1H-pyrazol-1-yl)-5-oxazolyl]propanoyl}-4-[(1-methyl-4-piperidinyl)methyl]piperazine] had a melting point of 126 to 127 °C.

`O=C(CCCc1oc(-n2cnc3ccccc32)nc1-c1ccc(Cl)cc1)Nc1ccc(S(=O)(=O)Nc2nccs2)cc1` [Example 104, 4-[2-(1H-benzimidazol-1-yl)-4-(4-chlorophenyl)-5-oxazolyl]-N-(4-{[(2-thiazolyl)amino]sulfonyl}phenyl)butanamide]: the melting point is 243 to 244 °C.

Turning to `O=C(CCc1oc(-n2cnc3ccccc32)nc1-c1ccc(Cl)cc1)NCCc1ccccc1` [Example 136, 3-[2-(1H-benzimidazol-1-yl)-4-(4-chlorophenyl)-5-oxazolyl]-N-(2-phenylethyl)propionamide], the melting point fell in the range of 164 to 165 °C.

Take `CN(C)C(=O)Cc1ccc(NC(=O)CCc2oc(-n3cnc4ccccc43)nc2-c2ccc(Cl)cc2)cc1` [Example 142, 2-[4-({3-[2-(1H-benzimidazol-1-yl)-4-(4-chlorophenyl)-5-oxazolyl]propanoyl}amino)phenyl]-N,N-dimethylacetamide]: the melting point was in the range of 207 to 208 °C.

`CCOP(=O)(Cc1ccc(NC(=O)CCc2oc(-n3ccnc3)nc2-c2ccc(Cl)cc2)cc1)OCC` gave a melting point of 196 to 197 °C.

As to `COc1cc(NC(=O)CCc2oc(-n3cnc4ccccc43)nc2-c2ccc(Cl)cc2)cc(OC)c1OC` [Example 127, 3-[2-(1H-benzimidazol-1-yl)-4-(4-chlorophenyl)-5-oxazolyl]-N-(3,4,5-trimethoxyphenyl)propionamide], the melting point was 228 to 229 °C.

`CCOP(=O)(Cc1ccc(NC(=O)/C=C/c2sc(-n3cnc4ccccc43)nc2C(C)(C)C)cc1)OCC`: the melting point fell in the range of 211 to 212 °C.

`O=C(CCc1oc(-n2cnc3ccccc32)nc1-c1ccc(Cl)cc1)NCc1ccc(Cl)c(Cl)c1` [Example 147, 3-[2-(1H-benzimidazol-1-yl)-4-(4-chlorophenyl)-5-oxazolyl]-N-(3,4-dichlorobenzyl)propionamide] gave a melting point of 190 to 191 °C.

Compound `CCOP(=O)(Cc1ccc(NC(=O)CCc2oc(-n3cnc4ccccc43)nc2-c2cccc(Cl)c2)cc1)OCC` registered a melting point of 98 to 99 °C.

As to `NC(=O)CCCc1oc(-c2ccccc2)nc1-c1ccc(Cl)cc1` [Example 52, 4-[4-(4-chlorophenyl)-2-phenyl-5-oxazolyl]butanamide], the melting point fell in the range of 168 to 169 °C.

The compound `CCOP(=O)(OCC)C(OC)c1ccc(NC(=O)CCc2oc(-n3cnc4ccccc43)nc2-c2ccc(Cl)cc2)cc1` (centres unmarked) came in with a melting point of 191 to 192 °C.

Consider `O=C(CCc1oc(-c2ccccc2)nc1-c1ccc(Cl)cc1)Nc1cccnc1` [Example 41, 3-[4-(4-chlorophenyl)-2-phenyl-5-oxazolyl]-N-(3-pyridinyl)propionamide], for which the melting point is 204 to 205 °C.

Take `COc1ccc(-c2nc(-c3ccc(Cl)cc3)c(CCC(N)=O)o2)cc1` [Example 28, 3-[4-(4-chlorophenyl)-2-(4-methoxyphenyl)-5-oxazolyl]propionamide]: the melting point was in the range of 215 to 216 °C.

For `CCOP(=O)(Cc1ccc(NC(=O)/C=C/c2oc(-c3ccccc3)nc2-c2ccc(Cl)cc2)cc1)OCC`, the melting point lay in the range of 204 to 206 °C.

Compound `CN(Cc1ccc(NC(=O)CCc2oc(-c3ccccc3)nc2-c2ccc(Cl)cc2)cc1)C1CCOCC1` [Example 94, 3-[4-(4-chlorophenyl)-2-phenyl-5-oxazolyl]-N-(4-{[N-methyl-N-(4-tetrahydropyranyl)amino]methyl}phenyl)propionamide] registered a melting point of 154 to 155 °C.

Consider `O=C(CCc1oc(-n2cnc3ccccc32)nc1-c1ccc(Cl)cc1)NCc1c(F)cccc1F` [Example 156, 3-[2-(1H-benzimidazol-1-yl)-4-(4-chlorophenyl)-5-oxazolyl]-N-(2,6-difluorobenzyl)propionamide], for which the melting point is 225 to 226 °C.

As to `O=C(CCc1oc(-n2cnc3ccccc32)nc1-c1ccc(Cl)cc1)NC1CCC(O)CC1` (centres unmarked) [Example 304, 3-[2-(1H-benzoimidazol-1-yl)-4-(4-chlorophenyl)-5-oxazolyl]-N-(4-hydroxycyclohexyl)propanamide], the melting point lay in the range of 204 to 206 °C.

`NC(=O)CCc1oc(N2CCN(c3ccccc3)CC2)nc1-c1ccc(Cl)cc1` [Example 31, 3-[4-(4-chlorophenyl)-2-(4-phenyl-1-piperazinyl)-5-oxazolyl]propionamide] registered a melting point of 187 to 188 °C.

Compound `CCOP(=O)(Cc1ccc(NC(=O)/C=C/c2sc(-n3cnc4ccccc43)nc2-c2ccccc2)cc1)OCC` showed a melting point of 229 to 230 °C.

As for `NC(=O)c1ccc(NC(=O)CCc2oc(-c3ccccc3)nc2-c2ccc(Cl)cc2)cc1` [Example 66, 4-({3-[4-(4-chlorophenyl)-2-phenyl-5-oxazolyl]propanoyl}amino)benzamide], the melting point lay within 268 to 269 °C.

As for `O=C(CCc1oc(-c2ccccc2)nc1-c1ccc(Cl)cc1)Nc1ccc(CN2CCCCC2)cc1` [Example 95, 3-[4-(4-chlorophenyl)-2-phenyl-5-oxazolyl]-N-{4-[(1-piperidinyl)methyl]phenyl}propionamide], the melting point is 223 to 225 °C.

As to `COc1ccccc1NC(=O)CCc1oc(-n2cnc3ccccc32)nc1-c1ccc(Cl)cc1` [Example 115, 3-[2-(1H-benzimidazol-1-yl)-4-(4-chlorophenyl)-5-oxazolyl]-N-(2-methoxyphenyl)propionamide], the melting point lay in the range of 194 to 195 °C.

`CCOP(=O)(Cc1ccc(NC(=O)Cc2oc(-c3ccccc3)nc2-c2ccc(Cl)cc2)cc1)OCC` yielded a melting point of 173 to 174 °C.

`NC(=O)CCc1oc(C2CCCCC2)nc1-c1ccc(Cl)cc1` [Example 17, 3-[4-(4-chlorophenyl)-2-cyclohexyl-5-oxazolyl]propionamide] yielded a melting point of 142 to 143 °C.

`O=C(CCc1oc(-n2cnc3ccccc32)nc1-c1ccc(Cl)cc1)NCc1cc(Cl)ccc1Cl` [Example 174, 3-[2-(1H-benzimidazol-1-yl)-4-(4-chlorophenyl)-5-oxazolyl]-N-(2,5-dichlorobenzyl)propionamide] showed a melting point of 205 to 207 °C.

Turning to `COC(=O)c1ccc(NC(=O)CCCc2oc(-c3ccccc3)nc2-c2ccc(Cl)cc2)cc1` [Example 50, 4-[4-(4-chlorophenyl)-2-phenyl-5-oxazolyl]-N-[4-(methoxycarbonyl)phenyl]butanamide], the melting point is 170 to 171 °C.

In turn, `COP(=O)(Cc1ccc(NC(=O)CCc2oc(-c3ccccc3)nc2-c2ccc(Cl)cc2)cc1)OC` yielded a melting point of 153 to 154 °C.

`Cc1ccc(Sc2nc(-c3ccc(Cl)cc3)c(CCC(N)=O)o2)cc1` [Example 10, 3-[4-(4-chlorophenyl)-2-[(4-methylphenyl)sulfanyl]-5-oxazolyl]propionamide] registered a melting point of 155 to 156 °C.
